Measured values reported in ChEMBL document CHEMBL1123473, “4,5-Disubstituted primaquine analogues as potential antimalarial agents” (1986).

Tests used:
Rhesus monkey [1] = test: Number of days between the end of the treatment and relapse was reported at a dose 1.0 mg/kg; format: functional, Cercopithecidae
Plasmodium cynomolgi [2] = test: Antimalarial activity against Plasmodium cynomolgi in rhesus monkey 1.0 mg/kg; 1 of 2; format: functional
Plasmodium cynomolgi [3] = test: Antimalarial activity against Plasmodium cynomolgi in rhesus monkey at a dose 0.1 mg/kg; 0 of 1; format: functional
Plasmodium cynomolgi [4] = test: Antimalarial activity against Plasmodium cynomolgi in rhesus monkey 0.316 mg/kg; 0 of 1; format: functional
Rhesus monkey [5] = test: Number of days between the end of the treatment and relapse was reported at a dose 0.316 mg/kg; format: functional, Cercopithecidae
Rhesus monkey [6] = test: Number of days between the end of the treatment and relapse was reported at a dose 0.1 mg/kg; format: functional, Cercopithecidae
Plasmodium cynomolgi [7] = test: Antimalarial activity against Plasmodium cynomolgi in rhesus monkey 0.316 mg/kg; 1 of 2; format: functional
Plasmodium cynomolgi [8] = test: Antimalarial activity against Plasmodium cynomolgi in rhesus monkey at a dose 0.1 mg/kg; 0 of 2; format: functional
Plasmodium cynomolgi [9] = test: Antimalarial activity against Plasmodium cynomolgi in rhesus monkey 1.0 mg; 2 of 2; format: functional
Plasmodium cynomolgi [10] = test: Antimalarial activity against Plasmodium cynomolgi infected rhesus monkey at 0.25 mg/kg; 2 of 2; format: functional
Plasmodium cynomolgi [11] = test: Antimalarial activity against Plasmodium cynomolgi infected rhesus monkey at 0.5 mg/kg dose; 1 of 1; format: functional
Plasmodium cynomolgi [12] = test: Antimalarial activity against Plasmodium cynomolgi in rhesus monkey at a dose 0.125 mg/kg; 2 of 2; format: functional
Plasmodium cynomolgi [13] = test: Antimalarial activity against Plasmodium cynomolgi infected Rhesus monkeys (Macaca mulatta) at 0.0625 mg/kg dose; cured 0 of 2; format: functional
Plasmodium cynomolgi [14] = test: Antimalarial activity against Plasmodium cynomolgi in rhesus monkey 1.0 mg/kg; 0 of 1; format: functional
Plasmodium cynomolgi [15] = test: Antimalarial activity against Plasmodium cynomolgi in rhesus monkey 1.0 mg/kg; 0 of 2; format: functional
Plasmodium cynomolgi [16] = test: Antimalarial activity against Plasmodium cynomolgi infected rhesus monkey at 0.25 mg/kg dose; 0 of 6; format: functional
Plasmodium cynomolgi [17] = test: Antimalarial activity against Plasmodium cynomolgi infected rhesus monkey at 0.75 mg/kg dose; 4 of 6; format: functional
Plasmodium cynomolgi [18] = test: Antimalarial activity against Plasmodium cynomolgi infected rhesus monkey at 0.5 mg/kg dose; cured 4 of 6; format: functional

**Q.** What does the source list for `C=Cc1ccnc2c(NC(C)CCCN)cc(OC)c(OC)c12` (centres undefined)?
**A.** Relapses (Rhesus monkey [1]): 27; Cures (Plasmodium cynomolgi [2]): 1; Cures (Plasmodium cynomolgi [3]): 0; Cures (Plasmodium cynomolgi [4]): 0; Relapses (Rhesus monkey [5]): 23; Relapses (Rhesus monkey [6]): 9

**Q.** With `COCc1ccnc2c(NC(C)CCCN)cc(OC)c(Oc3cccc(C(F)(F)F)c3)c12` (centres undefined) as the compound, how does the Cures (Plasmodium cynomolgi [7]) read?
**A.** The Cures was 1.

**Q.** And the Cures (Plasmodium cynomolgi [8])?
**A.** The Cures was 0.

**Q.** What about the Cures (Plasmodium cynomolgi [9]) of the same compound?
**A.** Its Cures is 2.

**Q.** And the Relapses (Rhesus monkey [5])?
**A.** Its Relapses is 28.

**Q.** And the Relapses (Rhesus monkey [6])?
**A.** The Relapses was 8.

**Q.** How did the Cures (Plasmodium cynomolgi [10]) turn out when `COc1cc(NC(C)CCCN)c2nccc(C)c2c1OC` (centres undefined) was run?
**A.** The Cures was 2.

**Q.** And the Cures (Plasmodium cynomolgi [11])?
**A.** The Cures was 1.

**Q.** And the Cures (Plasmodium cynomolgi [12])?
**A.** Its Cures is 2.

**Q.** And the Cures (Plasmodium cynomolgi [13])?
**A.** The Cures was 0.

**Q.** What does the source list for `COc1cc(NC(C)CCCN)c2nccc(COc3cccc(C(F)(F)F)c3)c2c1OC` (centres undefined)?
**A.** Relapses (Rhesus monkey [1]): 12; Cures (Plasmodium cynomolgi [14]): 0

**Q.** What does the source list for `COc1cc(NC(C)CCCN)c2nccc(COc3cccc(C(F)(F)F)c3)c2c1Oc1cccc(C(F)(F)F)c1` (centres undefined)?
**A.** Relapses (Rhesus monkey [1]): 11; Cures (Plasmodium cynomolgi [15]): 0; Cures (Plasmodium cynomolgi [3]): 0; Relapses (Rhesus monkey [6]): 11

**Q.** With `COc1cc(NC(C)CCCN)c2ncccc2c1` (centres undefined) [PRIMAQUINE] as the compound, how does the Cures (Plasmodium cynomolgi [16]) read?
**A.** Its Cures is 0.

**Q.** What about the Cures (Plasmodium cynomolgi [17]) of the same compound?
**A.** Its Cures is 4.

**Q.** And the Cures (Plasmodium cynomolgi [18])?
**A.** Its Cures is 4.
